{
  "source": "patent US20020198158A1",
  "about": "“Use of a cyclic ether for the preparation of medicaments affecting glucose tolerance” (priority 2000, published 2002)",
  "key": {"[1]": {"system": "GLP-1", "assay": "Plasma GLP-1 after gastric gavage", "assay_type": "in vivo, mice", "details": "P<0.05", "description": "(§1) Non-fasted NMRI mice (Bomholdtgaard Breeding and Research Center, Ry, Denmark), weighing 20-25 g are used throughout the study. The animals are fed a standard pellet diet and tap water ad libitum.\n(§2) The mice are fasted overnight and anesthetized as above. After induction of anesthesia, D-glucose (150 mg/mouse in 0.5 ml) is administered alone or together with 1,5AnFru (150 mg/mouse) through a gavage tube (outer diameter 1.2 mm) placed in the stomach. Blood samples are taken after 15, 30, 45, 60, 90 and 120 minutes and treated as above.\nPlasma insulin is determined radioimmunochemically with the use of a guinea pig anti-rat insulin antibody, ^125I-labelled porcine insulin as tracer and rat insulin as standard (Linco Research, St Charles, Mo., USA). Free and bound radioactivity is separated by use of an anti-IgG (goat anti-guinea pig) antibody (Linco). The sensitivity of the assay is 12 pmol/l and the coefficiency of variation is less than 3% at both low and high levels. Plasma glucose is determined with the glucose oxidase method. Plasma GLP-1 is measured by a radioimmunoassay after extraction of plasma samples with ethanol. 400 μl 0.05 mol/l sodium phosphate buffer, pH 7.5, containing 6% albumin and 0.1 mol/l NaCl is added to 100 μl mouse plasma on ice and mixed well. […]"}, "[2]": {"system": "isolated mouse islets", "assay": "Insulin secretion in vitro from isolated islets", "assay_type": "cell-based", "details": "60 min incubation", "description": "Pancreatic islets are isolated from four mice with the collagenase isolation technique. In brief, the pancreas is filled retrogradely through the pancreatic duct with 3 ml of Hank's Balanced Salt Solution (Sigma), supplemented with 0.3 mg/ml of Collagenase P (activity 1.86 U/mg; Boehringer Mannheim Gmbh, Mannheim, Germany). The pancreas is subsequently removed and incubated in the same solution for 20 min at 37° C. After rinsing, the islets are handpicked under a stereomicroscope and incubated overnight in RPMI 1640 medium supplemented with 10% fetal calf serum, 2.05 mmol/l L-glutamine, 2.5 μg/ml amphotericin B (GIBCO BRL, Paisley, Scotland), 100 lU/ml penicillin and 100 μg/ml streptomycin (Biol Ind, Beit Haemek, Israel) at 37° C. in humidified air equilibrated with 5% CO2. […]\nPlasma insulin is determined radioimmunochemically with the use of a guinea pig anti-rat insulin antibody, ^125I-labelled porcine insulin as tracer and rat insulin as standard (Linco Research, St Charles, Mo., USA). Free and bound radioactivity is separated by use of an anti-IgG (goat anti-guinea pig) antibody (Linco). […] Plasma glucose is determined with the glucose oxidase method. Plasma GLP-1 is measured by a radioimmunoassay after extraction of plasma samples with ethanol. […]"}, "[3]": {"system": "NMRI mice", "assay": "Intravenous glucose tolerance test", "assay_type": "in vivo", "details": "for AUCinsulin (area under the insulin curve during the 50 min study period): anesthetized mice", "description": "as §1\nThe mice are anesthetized with an intraperitoneal injection of midazolam (Dormicum^R, Hoffman-La-Roche, Basel, Switzerland, 0.4 mg/mouse) and a combination of fluanison (0.9 mg/mouse) and fentanyl (0.02 mg/mouse; Hypnorm^R, Janssen, Beerse, Belgium). Thereafter, a blood sample is taken from the retrobulbar, intraorbital, capillary plexus in heparinized tubes, whereafter D-glucose (British Drug Houses, Poole, UK; 1 g/kg) is injected rapidly intravenously either alone or together with 1,5AnFru (Danisco Ltd, Copenhagen, Denmark; 0.2 or 1 g/kg); in one series of experiments, 1,5AnFru is given alone (1 g/kg). The volume load is 10 μl/g body weight. New blood samples are taken after 1, 5, 10, 20, 30 and 50 minutes. In another set of experiments, 1,5AnFru is given by gastric gavage (0.2 g/kg) five minutes before the zero blood sample taken immediately before the intravenous injection of glucose as above. Blood samples are taken as above. Following immediate centrifugation at 4° C., plasma is separated and stored at −20° C. or until analysis.\n(§3) Plasma insulin is determined radioimmunochemically with the use of a guinea pig anti-rat insulin antibody, ^125I-labelled porcine insulin as tracer and rat insulin as standard (Linco Research, St Charles, Mo., USA). Free and bound radioactivity is separated by use of an anti-IgG (goat anti-guinea pig) antibody (Linco). The sensitivity of the assay is 12 pmol/l and the coefficiency of variation is less than 3% at both low and high levels. Plasma glucose is determined with the glucose oxidase method. Plasma GLP-1 is measured by a radioimmunoassay after extraction of plasma samples with ethanol. 400 μl 0.05 mol/l sodium phosphate buffer, pH 7.5, containing 6% albumin and 0.1 mol/l NaCl is added to 100 μl mouse plasma on ice and mixed well. The mixture is then extracted with 70% ethanol (vol/vol, final dilution), and after vacuum centrifugation the residue is reconstituted in assay buffer and assayed as previously described (Ørskov et al., 1994). […] The sensitivity using this procedure is 5 pmol/l, and the intra-assay coefficient of variation is 10%.\n(§4) Means±SEM are shown. Area under the curve for plasma insulin levels (AUCisulin) is calculated by the trapezoid rule. Statistical analyses are performed with the SPSS for Windows system. Statistical comparisons between groups are performed with Students t-test."}, "[4]": {"system": "NMRI mice", "assay": "Gastric glucose tolerance test", "assay_type": "in vivo", "details": "gastric gavage glucose 150 mg/mouse with 1,5AnFru 150 mg/mouse", "description": "as §1, §2, §3, §4"}},
  "note": "“Also recorded” adds a separate entry of the source.",
  "data": [
    {"molecule": "O=C1CO[C@H](CO)[C@@H](O)[C@@H]1O", "note": "[1,5AnFru, 1,5-anhydro-D-fructose]", "values": [
      {"measurement": "plasma GLP-1, 30 min value", "setting": "[1]; 30 min after gastric gavage of glucose 150 mg/mouse with 1,5AnFru 150 mg/mouse", "result": "78.2 ± 8.6", "unit": "pmol/L"},
      {"measurement": "plasma GLP-1, 60 min value", "setting": "[1]; 60 min after gastric gavage of glucose 150 mg/mouse with 1,5AnFru 150 mg/mouse", "result": "28.8 ± 3.8", "unit": "pmol/L"},
      {"measurement": "glucose-stimulated insulin secretion", "setting": "[2]; 16.7 mmol/l 1,5AnFru together with 11.1 mmol/l glucose", "result": "inhibition of insulin secretion is observed; also recorded: inhibits"},
      {"measurement": "glucose-stimulated insulin secretion", "setting": "[2]; 1,5AnFru at 11.1 mmol/l or below", "result": "does not affect"},
      {"measurement": "glucose-stimulated insulin secretion (insulin response to iv glucose)", "setting": "[3]; 1,5AnFru 1 g/kg iv together with glucose 1 g/kg iv", "result": "inhibits"},
      {"measurement": "basal plasma levels of insulin or glucose", "setting": "[3]; 1,5AnFru given alone iv, 1 g/kg", "result": "not affected"},
      {"measurement": "AUCinsulin (area under the insulin curve during the 50 min study period)", "setting": "[3]; iv glucose 1 g/kg together with 1,5AnFru 0.2 g/kg iv", "result": "14.6±1.9", "unit": "nmol/l×50 min"},
      {"measurement": "AUCinsulin (area under the insulin curve during the 50 min study period)", "setting": "[3]; iv glucose 1 g/kg together with 1,5AnFru 1 g/kg iv, P=0.021 vs glucose alone", "result": "8.6±1.9", "unit": "nmol/l×50 min"},
      {"measurement": "glucose elimination after intravenous glucose administration", "setting": "[3]; iv glucose 1 g/kg with 1,5AnFru iv, 50 min study period", "result": "not affected; also recorded: without affecting"},
      {"measurement": "AUCinsulin during 60 min", "setting": "[4]; P=0.018 vs control", "result": "32.9 ± 2.6", "unit": "nmol/L"},
      {"measurement": "AUCinsulin during the first 60 min after administration", "setting": "[4]; P=0.018 vs controls", "result": "32.9±2.6", "unit": "nmol/l in 60 min"},
      {"measurement": "60 min plasma glucose value", "setting": "[4]; P=0.021 vs controls", "result": "15.5 ± 1.6", "unit": "mmol/L"}
    ]}
  ]
}
